We go through eight molecules from patent publication US20120214824A1, “PROTEOSTASIS REGULATORS” (priority 2010, published 2012).

Experiment [1] deals with firefly luciferase. Nature of the experiment: Luciferase folding assay (Lucif.). Type of experiment: cell-based, human. Particulars: HeLa-luciferase cells; for Lucif. (luciferase activity induction): Table 1a; for Lucif (luciferase activity induction): Table 2a. The source says:
Firefly luciferase is a commonly used bioluminescent reporter. This monomeric enzyme of 61 kDa catalyzes a two-step oxidation reaction to yield light, usually in the green to yellow region, typically 550-570 nm. The first step of this reaction is activation of the luciferyl carboxylate by ATP to yield a reactive mixed anhydride. In the second step, the activated intermediate reacts with oxygen to create a transient dioxetane that breaks down to the oxidized products, oxyluciferin and CO2. Upon mixing with substrates, firefly luciferase produces an initial burst of light that decays over about 15 seconds to a low level of sustained luminescence. This kinetic profile reflects the slow release of the enzymatic product, thus limiting catalytic turnover after the initial reaction.
This mammalian cell based assay that used firefly luciferase as a sensor was used to screen for compounds that may modulate the cellular folding environment.
HeLa luciferase cell lines: Frozen bullets containing the cells were thawed briefly at 37° C. then placed into a T-150 flask containing 30-35 ml DMEM medium+Penicillin/Strep (1% final+10% FBS (final)+Geneticin @ 200-500 ug/ml. Cell cultures were maintained at 37° C. with 5% CO2 and water in the bottom of the incubator to keep cells healthy. Upon expanding cell line, luciferase measurements were taken to make sure that activity levels were between 2000-5000 (RLU) when plated at 15K/well in a 96-well format (Bright-Glo Promega) before compound treatment.
Compound treatment of HeLa-luciferase cells: HeLa-luciferase WT cells were plated in a 96-well format at 15K/well the day prior to performing compound treatment and/or luciferase assay. […] Final volume used per well was 90 uL. Flat bottom, white polystyrene plates were used for plating the cells.
For compound treatment, stocks of compounds were made up at 10 mM concentration in DMSO. Stocks compounds were diluted by 100× fold in the same media used for culturing the cells—this leads to a 0.1 mM (or 100 uM) concentration. After diluting the compound in media, 10 uL of the 100 uM solution was placed into each well of cells (90 uL); making the final concentration of the compound 10 uM. If serial dilutions of compounds were tested, serial dilutions of compounds were first made in DMSO accordingly, and further diluted in the media, prior to adding to cells. This procedure allowed for constant final levels of DMSO concentrations, regardless of initial compound concentration.
Performing luciferase activity assay: Bright-Glo Luciferase Assay Reagent (Promega cat #: E2610, E2620, E2650) was thawed out at RT in a water bath. Alternatively, Bright-Glo Luciferase assay buffer (prior to mixing with substrate) was stored overnight at RT, prior to using.
Following compound treatment, plates were removed from 37° C. and allowed to acclimate to RT for 5-10 min. Bright-Glo reagent was added to each cell-containing well in a 1:1 ratio (e.g., 100 uL of Bright Glo for each 100 uL cells).
Plates were placed on a plate shaker for 5 min, removing any air bubbles on the surface (which may interfere with proper reads), and then read on an EnVision 2104 Multilabel reader, Emission filter Luminescence 700, barcode 212, WL 400-700 nm.
Data for representative compounds in this assay are shown under the heading “Lucif.”

For experiment [2], the system named is BCL2. Nature of the experiment: Multigene assay (QuantiGene Plex 2.0), mouse MEF cell line. It counts as cell-based. As to conditions: 6 hours post-compound treatment. As for the experimental part:
(§1) This assay used the QuantiGene Plex 2.0 Reagent System from Affymetrix. This assay combines the use of bDNA (branch DNA) and xMAP magnetic capture beads from Luminex Technologies to quantitatively and simultaneously detect multiple mRNA transcripts per well. The overall procedure was performed according to the QuantiGene Plex 2.0 Reagent System instruction manual from Affymetrix.
(§2) Cells were seeded at a density of 12,000 cells/well in 96-well plates with an overnight incubation at 37° C., 5% CO2. Cells were treated with serially diluted compounds in a 7-point dose dependent manner. Cell lysis with 50% [v/v] Panomics Lysis Mixture (Lysis Mixture+10 μl/ml 25 Proteinase K) was performed 6 hours post-compound treatment. Lysed cells were heated at 50° C. to ensure appropriate lysing and the plates were then frozen at −80° C. Cell lysates, thawed at room temperature on the day of the assay, were pooled with mouse 8-gene multiplex probe sets and with 8 different sets of magnetic capture beads (Luminex Technology, Austin, Tex.) in a 100 μl/well volume. Biomek FX was used at every liquid transfer step. The eight plates containing lysate-probe-bead mixtures were incubated at 54° C.±1° C. on a shaking platform for an overnight incubation in the dark (18-20 hours). The following day the hybridization plates were compressed by transferring the hybridized lysates into a single magnetic capture plate. The plate was kept on a magnet to hold the beads and then washed with Panomics Wash Buffer 2.0 on a BioTek ELx405 select plate washer to remove any unbound sample. This step was followed by serial hybridizations and washings of the bDNA pre-amplifier (1 hour, 50° C.), bDNA amplifier (1 hour, 50° C.), label probe (1 hour, 50° C.), and streptavidin-phycoerythrin (SAPE, 30 minutes, room temperature). (Zhang, A. et al. Small interfering RNA and gene expression analysis using a multiplex branched DNA assay without RNA purification. J Biomol Screen 10, 549-56 (2005)). The plate was then washed with SAPE wash buffer to remove unbound SAPE and each well was analyzed with the Luminex FlexMap3D (Luminex, Austin, Tex.). SAPE fluorescence measured from each bead was proportional to the number of mRNA transcripts captured by the beads (Zheng, Z., Luo, Y. & McMaster, G. K. Sensitive and quantitative measurement of gene expression directly from a small amount of whole blood. Clin Chem 52, 1294-302 (2006)). Fold changes in gene expression were obtained for each gene per well by normalizing the raw data first to the DMSO control and then to a housekeeping gene (TBP-TATA binding protein or Tub1-alpha-tubulin).

For experiment [3], the system named is DDIT3. Described as above. It counts as cell-based. As to conditions: 6 hours post-compound treatment. As for the experimental part: as §1, §2
Experiment [4] deals with GCLM. The experiment is described as above. It counts as cell-based. As to conditions: 6 hours post-compound treatment. How it is done: as §1, §2
The test system of experiment [5] is HMOX. The description is as above. Type of experiment: cell-based. As to conditions: 6 hours post-compound treatment. As for the experimental part:
as §1, §2

The subject of experiment [6] is HSPA1a. The experiment is described as above. It counts as cell-based. Particulars: 6 hours post-compound treatment. As for the experimental part: as §1, §2
For experiment [7], the system named is HspA5. The experiment is described as above. Type of experiment: cell-based. Particulars: 6 hours post-compound treatment. How it is done: as §1, §2
For experiment [8], the system named is TUB1. The description is as above. As to conditions: 6 hours post-compound treatment. Type of experiment: cell-based. How it is done: as §1, §2

Regarding `CC1=C(C#N)C(c2ccc(F)cc2)C2=C(CC(c3cccs3)CC2=O)N1` (stereo not drawn) [drawing 26/Me/CN/p-F], the “Lucif. (luciferase activity induction)” value in experiment [1] is given as “+ (+ indicates a induction of greater than 2 fold)”. Also, the BCL2 gene induction entry in experiment [2] (Table 1b) was “− (− Indicates less than 2 fold induction)”. Also, in experiment [3] (Table 1a), the DDIT3 gene induction entry was “− (− Indicates less than 2 fold induction)”. Further, the GCLM gene induction result in experiment [4] (Table 1a) is on record as “− (− Indicates less than 2 fold induction)”. Also, the HMOX gene induction entry in experiment [5] (Table 1b) is on record as “− (− Indicates less than 2 fold induction)”. In experiment [6] (Table 1b), the HSPA1a gene induction entry is reported as “− (− Indicates less than 2 fold induction)”. Also, the HspA5 gene induction entry in experiment [7] (Table 1b) was “− (− Indicates less than 2 fold induction)”. In addition, the TUB1 gene induction result in experiment [8] (Table 1a) is listed as “− (− Indicates less than 2 fold induction)”.

Take `CC1=C(C(=O)OCC(C)C)C(c2ccc(F)cc2)C2=C(CC(c3cccs3)CC2=O)N1` (stereo not drawn) [drawing 26/Me/COOCH2CHMe2/p-F #1]: the “Lucif. (luciferase activity induction)” value in experiment [1] is “+ (+ indicates a induction of greater than 2 fold)”.

As to `CC1=C(C(=O)OCC(C)C)C(c2ccc(F)cc2)C2=C(CC(c3cccs3)CC2=O)N1` (stereo not drawn) [drawing 26/Me/COOCH2CHMe2/p-F #2], the “Lucif. (luciferase activity induction)” value in experiment [1] was “+ (+ indicates a induction of greater than 2 fold)”. Also, the BCL2 gene induction result in experiment [2] (Table 1b) is listed as “− (− Indicates less than 2 fold induction)”. Moreover, the DDIT3 gene induction entry in experiment [3] (Table 1a) is listed as “+ (+ indicates a induction of greater than 2 fold)”. Further, the GCLM gene induction entry in experiment [4] (Table 1a) is listed as “− (− Indicates less than 2 fold induction)”. The HMOX gene induction entry in experiment [5] (Table 1b) is on record as “− (− Indicates less than 2 fold induction)”. Besides, the HSPA1a gene induction entry in experiment [6] (Table 1b) was “− (− Indicates less than 2 fold induction)”. Also, the HspA5 gene induction result in experiment [7] (Table 1b) is recorded as “− (− Indicates less than 2 fold induction)”. Also, the TUB1 gene induction entry in experiment [8] (Table 1a) is recorded as “− (− Indicates less than 2 fold induction)”.

`CC1=C(C#N)C(c2ccccc2OC(C)C)C2=C(CC(c3ccccc3)CC2=O)N1` (stereo not drawn) [drawing 27/Me/CN/o-OCHMe2/H]: the “Lucif (luciferase activity induction)” value in experiment [1] was “+ (+ indicates a induction of greater than 2 fold)”. Further, the BCL2 gene induction result in experiment [2] (Table 2b) is “− (− Indicates less than 2 fold induction)”. Further, the DDIT3 gene induction result in experiment [3] (Table 2a) is “− (− Indicates less than 2 fold induction)”. Also, in experiment [4] (Table 2a), the GCLM gene induction result was “− (− Indicates less than 2 fold induction)”. In experiment [5] (Table 2b), the HMOX gene induction result was “− (− Indicates less than 2 fold induction)”. In addition, the HSPA1a gene induction entry in experiment [6] (Table 2b) is recorded as “− (− Indicates less than 2 fold induction)”. Also, in experiment [7] (Table 2b), the HspA5 gene induction entry is reported as “− (− Indicates less than 2 fold induction)”. Besides, the TUB1 gene induction entry in experiment [8] (Table 2a) was “− (− Indicates less than 2 fold induction)”.

Consider `CC1=C(C#N)C(c2ccc(F)cc2)C2=C(CC(c3ccccc3)CC2=O)N1` (stereo not drawn) [drawing 27/Me/CN/p-F/H], for which, in experiment [1], the “Lucif (luciferase activity induction)” value is reported as “+ (+ indicates a induction of greater than 2 fold)”. Further, the BCL2 gene induction entry in experiment [2] (Table 2b) is “− (− Indicates less than 2 fold induction)”. In experiment [3] (Table 2a), the DDIT3 gene induction result is on record as “+ (+ indicates a induction of greater than 2 fold)”. Also, the GCLM gene induction entry in experiment [4] (Table 2a) is “− (− Indicates less than 2 fold induction)”. In experiment [5] (Table 2b), the HMOX gene induction result was “+ (+ indicates a induction of greater than 2 fold)”. Also, the HSPA1a gene induction result in experiment [6] (Table 2b) is given as “− (− Indicates less than 2 fold induction)”. Moreover, the HspA5 gene induction entry in experiment [7] (Table 2b) is on record as “− (− Indicates less than 2 fold induction)”. Further, the TUB1 gene induction entry in experiment [8] (Table 2a) is given as “− (− Indicates less than 2 fold induction)”.

As for `CC(C)(C)c1n[nH]c2c1C(c1cccs1)C(C#N)=C(N)O2` (stereo not drawn) [drawing 29/CMe3/H/H/S], the BCL2 gene induction entry in experiment [2] (Table 4b) is listed as “− (− Indicates less than 2 fold induction)”. For the same molecule, the DDIT3 gene induction result in experiment [3] (Table 4a) is “− (− Indicates less than 2 fold induction)”. Besides, the GCLM gene induction result in experiment [4] (Table 4a) was “+ (+ indicates a induction of greater than 2 fold)”. The HMOX gene induction result in experiment [5] (Table 4b) was “+ (+ indicates a induction of greater than 2 fold)”. Further, in experiment [6] (Table 4b), the HSPA1a gene induction result is recorded as “− (− Indicates less than 2 fold induction)”. Moreover, the HspA5 gene induction entry in experiment [7] (Table 4b) is “− (− Indicates less than 2 fold induction)”. In experiment [8] (Table 4a), the TUB1 gene induction entry was “− (− Indicates less than 2 fold induction)”.

For the molecule `Cc1ccsc1C1C(C#N)=C(N)Oc2[nH]nc(C(C)(C)C)c21` (stereo not drawn) [drawing 29/CMe3/H/Me/S], the BCL2 gene induction result in experiment [2] (Table 4b) was “− (− Indicates less than 2 fold induction)”. The DDIT3 gene induction result in experiment [3] (Table 4a) is given as “− (− Indicates less than 2 fold induction)”. Moreover, the GCLM gene induction result in experiment [4] (Table 4a) is “+ (+ indicates a induction of greater than 2 fold)”. The HMOX gene induction entry in experiment [5] (Table 4b) is “+ (+ indicates a induction of greater than 2 fold)”. In addition, in experiment [6] (Table 4b), the HSPA1a gene induction entry is given as “− (− Indicates less than 2 fold induction)”. Also, the HspA5 gene induction result in experiment [7] (Table 4b) is listed as “− (− Indicates less than 2 fold induction)”. The TUB1 gene induction entry in experiment [8] (Table 4a) is on record as “− (− Indicates less than 2 fold induction)”.

Regarding `Cc1n[nH]c2c1C(c1cccs1)C(C#N)=C(N)O2` (stereo not drawn) [drawing 29/Me/H/H/S], the BCL2 gene induction result in experiment [2] (Table 4b) is listed as “− (− Indicates less than 2 fold induction)”. Moreover, the DDIT3 gene induction result in experiment [3] (Table 4a) is on record as “− (− Indicates less than 2 fold induction)”. Moreover, the GCLM gene induction result in experiment [4] (Table 4a) is recorded as “+ (+ indicates a induction of greater than 2 fold)”. The HMOX gene induction result in experiment [5] (Table 4b) is “+ (+ indicates a induction of greater than 2 fold)”. Besides, in experiment [6] (Table 4b), the HSPA1a gene induction entry is recorded as “− (− Indicates less than 2 fold induction)”. Besides, the HspA5 gene induction result in experiment [7] (Table 4b) was “− (− Indicates less than 2 fold induction)”. Moreover, the TUB1 gene induction result in experiment [8] (Table 4a) was “− (− Indicates less than 2 fold induction)”.
